Values after ≈ are worked out from the molar mass of the structure shown. One block for each compound: values may come before it.
Experiments:
[1] = tested on: Pseudomonas aeruginosa; test: Antibacterial activity against Pseudomonas aeruginosa PAO1 assessed as reduction in bacterial growth incubated for 24 hrs By CLSI based micro-dilution method; type: functional
[2] = molecular target: T1, UDP-3-O-acyl-N-acetylglucosamine deacetylase (Escherichia coli K-12, UniProt P0A725); test: Inhibition of Escherichia coli LpxC
T1 sequence (P0A725 whole entry): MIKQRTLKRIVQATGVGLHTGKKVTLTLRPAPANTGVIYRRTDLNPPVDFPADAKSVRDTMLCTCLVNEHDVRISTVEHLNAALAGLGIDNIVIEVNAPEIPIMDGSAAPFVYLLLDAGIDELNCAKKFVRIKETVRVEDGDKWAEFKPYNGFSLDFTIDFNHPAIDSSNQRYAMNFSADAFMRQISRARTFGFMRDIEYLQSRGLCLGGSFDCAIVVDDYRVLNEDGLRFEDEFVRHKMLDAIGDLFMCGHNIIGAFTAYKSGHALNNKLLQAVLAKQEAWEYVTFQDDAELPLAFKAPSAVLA

[3] = tested on: Escherichia coli; test: Anti-microbial activity against Escherichia coli ATCC 25922 assessed as reduction in bacterial growth incubated for 24 hrs By CLSI based micro-dilution method; type: functional
[4] = molecular target: T1, UDP-3-O-acyl-N-acetylglucosamine deacetylase; test: Binding affinity to Escherichia coli LpxC assessed as inhibition constant
[5] = tested on: Escherichia coli; test: Antibacterial activity against Escherichia coli ATCC 25922 assessed as reduction in bacterial growth by CLSI protocol based Mueller Hinton broth assay; type: functional
[6] = tested on: Pseudomonas aeruginosa; test: Antibacterial activity against Pseudomonas aeruginosa ATCC 27853 assessed as reduction in bacterial growth by CLSI protocol based Mueller Hinton broth assay; type: functional
[7] = tested on: Klebsiella pneumoniae; test: Antibacterial activity against Klebsiella pneumoniae A651 assessed as reduction in bacterial growth by CLSI protocol based Mueller Hinton broth assay; type: functional
[8] = tested on: Escherichia coli; test: Antibacterial activity against Escherichia coli CMCC 44568 assessed as reduction in bacterial growth incubated for 22 hrs byMueller-Hinton Broth assay; type: functional
[9] = tested on: Pseudomonas aeruginosa; test: Antibacterial activity against Pseudomonas aeruginosa CMCC 10104 assessed as reduction in bacterial growth incubated for 22 hrs byMueller-Hinton Broth assay; type: functional
[10] = molecular target: T2, UDP-3-O-acyl-N-acetylglucosamine deacetylase (Pseudomonas aeruginosa (strain ATCC 15692 / PAO1 / 1C / PRS 101 / LMG12228), UniProt P47205); test: Inhibition of Pseudomonas aeruginosa LpxC
T2 sequence (P47205 whole entry): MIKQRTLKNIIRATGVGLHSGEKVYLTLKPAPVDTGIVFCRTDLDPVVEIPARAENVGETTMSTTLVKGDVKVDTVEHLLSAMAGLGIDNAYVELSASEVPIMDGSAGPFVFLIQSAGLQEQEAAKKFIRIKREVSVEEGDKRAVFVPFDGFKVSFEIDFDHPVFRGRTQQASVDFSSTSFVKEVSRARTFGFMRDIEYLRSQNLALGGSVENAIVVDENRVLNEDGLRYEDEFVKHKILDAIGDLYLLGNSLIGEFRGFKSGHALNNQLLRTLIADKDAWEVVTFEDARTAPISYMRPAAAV

[11] = tested on: Escherichia coli; test: Antibacterial activity against Escherichia coli assessed as bacterial growth inhibition; type: functional
[12] = tested on: Pseudomonas aeruginosa; test: Antibacterial activity against Pseudomonas aeruginosa assessed as bacterial growth inhibition; type: functional
[13] = Toxicity in CD-1 mouse assessed as effective dose; settings: in vivo
[14] = tested on: Escherichia coli; test: Antimicrobial activity against Escherichia coli ATCC 25922 assessed as reduction in bacterial growth incubated for 18 hrs by micro-dilution method; type: functional
[15] = molecular target: T2, UDP-3-O-acyl-N-acetylglucosamine deacetylase; test: Binding affinity to Pseudomonas aeruginosa LpxC assessed as inhibition constant
[16] = tested on: Klebsiella pneumoniae; test: Antibacterial activity against Klebsiella pneumoniae ATCC 700603 assessed as inhibition of bacterial growth incubated for 18 hrs by broth micro-dilution method; type: functional
[17] = tested on: Yersinia enterocolitica; test: Antibacterial activity against Yersinia enterocolitica assessed as inhibition of bacterial growth incubated for 16 to 20 hrs by CLSI protocol based Muller Hinton broth assay; type: functional; settings: time 16-20 hrs
[18] = tested on: Pseudomonas aeruginosa; test: Antibacterial activity against Pseudomonas aeruginosa ATCC 27853 assessed as reduction in bacterial growth by CLSI protocol based Muller Hinton broth assay; type: functional
[19] = tested on: Pseudomonas aeruginosa; test: Antibacterial activity against Pseudomonas aeruginosa assessed as reduction in bacterial growth; type: functional
[20] = tested on: Klebsiella pneumoniae; test: Antibacterial activity against Klebsiella pneumoniae ATCC 43816 assessed as reduction in microbial growth incubated for 16 to 18 hrs by CLSI protocol based Muller Hinton broth assay; type: functional; settings: time 16-18 hrs
[21] = tested on: Escherichia coli; test: Antibacterial activity against Escherichia coli ATCC 25922 assessed as reduction in bacterial growth; type: functional
[22] = tested on: Escherichia coli; test: Antibacterial activity against Escherichia coli ATCC 25922 assessed as reduction in bacterial growth incubated for 18 hrs by broth micro-dilution method; type: functional
[23] = tested on: Haemophilus influenzae; test: Antibacterial activity against Haemophilus influenzae ATCC 49247 assessed as inhibition of microbial growth incubated for 18 hrs by micro-broth dilution method; type: functional
[24] = tested on: Serratia marcescens; test: Antibacterial activity against Serratia marcescens assessed as inhibition of bacterial growth by Muller-Hinton broth based serial dilution method; type: functional
[25] = tested on: Morganella morganii; test: Antimicrobial activity against Morganella morganii ATCC 25830 assessed as inhibition of microbial growth incubated for 18 hrs by micro-broth dilution method; type: functional
[26] = Inhibition of Aquifex aeolicus LpxC
[27] = tested on: Salmonella typhimurium; test: Antimicrobial activity against Salmonella enterica subsp. enterica serovar Typhimurium ATCC 14028 assessed as inhibition of bacterial growth measured for 24 hrs by standard broth microdilution method; type: functional
[28] = tested on: Pseudomonas aeruginosa; test: Antibacterial activity against Pseudomonas aeruginosa ATCC 27853 assessed as reduction in bacterial growth incubated for 18 hrs by broth micro-dilution method; type: functional
[29] = tested on: Escherichia coli; test: Antibacterial activity against Escherichia coli ATCC 25922 incubated for 24 hrs by CLSI based micro-dilution method; type: functional
[30] = tested on: Pseudomonas aeruginosa; test: Antibacterial activity against Pseudomonas aeruginosa PAO1; type: functional
[31] = tested on: Klebsiella pneumoniae; test: Antibacterial activity against Klebsiella pneumoniae ATCC 700603; type: functional
[32] = tested on: Escherichia coli; test: Antibacterial activity against Escherichia coli ATCC 25922; type: functional

MIC [1]: 0.06 µg/mL (≈ 0.143 µM)
Structure (SMILES): CC(O)C#CC#Cc1ccc(C2=NO[C@@H](C[C@](C)(C(=O)NO)S(C)(=O)=O)C2)cc1 (stereo partly drawn)

IC50 [2]: 27000 nM
Structure (SMILES): O=C(CO/N=C/c1ccc(O)c(O)c1O)NC[C@H]1O[C@@H](n2ccc(=O)[nH]c2=O)[C@@H](O)[C@H]1O

MIC [3]: 0.125 µg/mL (≈ 0.236 µM)
Structure (SMILES): O=C(NO)[C@@H](OCc1ccc(C#Cc2ccc(CN3CCOCC3)cc2)cc1)[C@@H](O)COCc1ccccc1

MIC [3]: 2 µg/mL (≈ 4.73 µM)
Ki [4]: 3500 nM
Structure (SMILES): O=C(NO)[C@H]1O[C@@H](c2ccc(C#Cc3ccc(CN4CCOCC4)cc3)cc2)C[C@H]1O

MIC [5]: 0.063 µg/mL (≈ 0.134 µM)
MIC [6]: 1 µg/mL (≈ 2.12 µM)
MIC [7]: 0.25 µg/mL (≈ 0.53 µM)
Structure (SMILES): C[C@]1(CO)C[C@@H]1C#CC#Cc1ccc2c(=O)n(CC[C@](C)(C(=O)NO)S(C)(=O)=O)cnc2c1

MIC [8]: 2 µg/mL (≈ 6.23 µM)
MIC [9]: 1 µg/mL (≈ 3.12 µM)
Structure (SMILES): N=C(N)N/N=C/c1ccc(C#CC#Cc2ccc(Cl)cc2)cc1

IC50 [10]: 0.2 nM
MIC [1]: 0.25 µg/mL (≈ 0.562 µM)
Structure (SMILES): O=C(NO)C1(NCc2ccc(-c3ccc(Cl)cc3F)c(F)c2)CCS(=O)(=O)CC1

Structure (SMILES): CC(O)C(CP(=O)(O)O)NC(=O)c1ccc(C#Cc2ccc(CN3CCOCC3)cc2)cc1 (stereo not drawn)
MIC [11]: 0.28 µg/mL (≈ 0.593 µM)
MIC [12]: 2.06 µg/mL (≈ 4.36 µM)

IC50 [2]: 100 nM
Structure (SMILES): CS(=O)(=O)c1cc(=O)c(O)c(CNc2ccc(-c3ccc(N4CCOCC4)cc3)cc2)o1

MIC [8]: 8 µg/mL (≈ 24.9 µM)
MIC [9]: 4 µg/mL (≈ 12.5 µM)
Structure (SMILES): N=C(N)N/N=C/c1ccc(C#CC#Cc2ccccc2Cl)cc1

MIC90 [14]: 0.5 µg/mL (≈ 1.33 µM)
Ki [15]: 0.0089 nM
MIC90 [16]: 0.125 µg/mL (≈ 0.332 µM)
Structure (SMILES): C[C@@](O)(C(F)F)[C@H](NC(=O)c1ccc(C#CC#CC2CC2)cc1)C(=O)NO
ED50 [13]: 7.2 mg/kg/day

Ki [4]: 4400 nM
Structure (SMILES): O=C(NO)[C@H]1O[C@@H](c2ccc(C#CC#Cc3ccccc3)cc2)[C@@H](O)[C@H]1O

MIC [17]: 2 µg/mL (≈ 5.41 µM)
MIC [18]: 0.25 µg/mL (≈ 0.677 µM)
MIC [19]: ≤ 1 µg/mL
MIC [20]: 0.5 µg/mL
MIC [21]: 0.125 µg/mL (≈ 0.338 µM)
Structure (SMILES): CC(C)(N)[C@H](NC(=O)c1ccc(C#CC#C[C@@H]2C[C@H]2CO)cc1)C(=O)NO [ACHN-975]

MIC [22]: 1 µg/mL (≈ 3.59 µM)
Structure (SMILES): CCCc1cc(C2=NC(C(=O)NO)CO2)ccc1OC (stereo not drawn)

MIC [23]: 1 µg/mL
IC50 [2]: 400 nM
MIC [24]: 1 µg/mL (≈ 2 µM)
MIC [25]: 1 µg/mL
Structure (SMILES): O=C(NO)[C@@H](Cc1ccc2ccccc2c1)NS(=O)(=O)c1ccc2cc(Br)ccc2c1

IC50 [26]: 192000 nM
IC50 [2]: 115000 nM
Structure (SMILES): CCCCCC(=O)O[C@@H]1[C@@H](CP(C)(=O)O)CO[C@H](CO)[C@H]1O

IC50 [2]: 100 nM
Structure (SMILES): CNC(=O)c1ccc(-c2ccc(NCc3oc(S(C)(=O)=O)cc(=O)c3O)cc2)cc1

MIC [23]: 1 µg/mL
IC50 [2]: 160 nM
MIC [24]: 1 µg/mL (≈ 2.38 µM)
MIC [25]: 1 µg/mL
Structure (SMILES): O=C(NO)[C@@H](Cc1ccc2ccccc2c1)NS(=O)(=O)c1ccc2ccccc2c1

MIC [27]: 0.024 µg/mL (≈ 0.0662 µM)
MIC [28]: 0.74 µg/mL (≈ 2.04 µM)
MIC [29]: 0.05 µg/mL (≈ 0.138 µM)
Structure (SMILES): C[C@@H](O)[C@H](NC(=O)c1ccc(C#CC#Cc2ccccc2)cc1)C(=O)NO

MIC [5]: 0.031 µg/mL (≈ 0.0638 µM)
MIC [6]: 0.5 µg/mL (≈ 1.03 µM)
MIC [7]: 0.125 µg/mL (≈ 0.257 µM)
Structure (SMILES): C[C@@](CCN1Cc2cc(C#Cc3ccc([C@H]4C[C@@H]4CO)cc3)cn2C1=O)(C(=O)NO)S(C)(=O)=O

MIC [30]: 0.5 µg/mL (≈ 1.3 µM)
MIC [31]: 0.5 µg/mL (≈ 1.3 µM)
MIC [32]: 0.12 µg/mL (≈ 0.313 µM)
Structure (SMILES): COC[C@@H]1C[C@H]1C#CC#Cc1ccc(C(=O)N[C@H](C(=O)NO)C(C)(C)N)cc1

From ChEMBL document CHEMBL6134815, “Research progress of LpxC inhibitor on Gram-negative bacteria” (Eur J Med Chem, 2025)
